For this assay, the system named is Claviceps purpurea. The assay is described as follows: Field trials 2018 in Canada: foliar application at early flowering, sclerotia (ergot bodies) counted in harvested wheat grain. Format: in vivo. Particulars: 75 grams/ha Pydiflumetofen, spring wheat (AC Goodeve) or durum wheat (AC Strongfield), crop per trial not stated. How it is done:
Pydiflumetofen as well as market standards were applied according to table 2 between Jul. 6-9, 2018 between BBCH stage 61-63 (early flowering). Assessment of sclerotia was conducted in fall 2018 on harvested grain samples. […] A mixture of Pydiflumetofen and Propiconazole is also available as a suspension concentrate 275 SC formulation (275 grams of total active ingredients) with 150 grams of Pydiflumetofen and 125 grams of Propiconazole per litre under the name […] be tested for reduction of sclerotia in cereals, in particular in spring wheat, winter wheat, durum, hybrid spring wheat, hybrid winter wheat, winter rye, spring rye, hybrid winter rye, hybrid spring rye, and […] plants.

As for `CON(C(=O)c1cn(C)nc1C(F)F)C(C)Cc1c(Cl)cc(Cl)cc1Cl` (stereo not drawn) [Pydiflumetofen, 3-(difluoromethyl)-N-methoxy-1-methyl-N-[1-methyl-2-(2,4,6-trichlorophenyl)ethyl]-1H-pyrazole-4-carboxamide], the “Trial No 1 number of Ergot bodies per kg seed” value (applied BBCH 61-63, untreated 0.5) was found to be 0.5 per kg seed. Further, the “Trial No 3 number of Ergot bodies per kg seed” value (applied BBCH 61-63, untreated 1.3) worked out at 0 per kg seed. Also, the “Trial No 2 number of Ergot bodies per kg seed” value (applied BBCH 61-63, untreated 2.3) turned out to be 0.3 per kg seed.

These data come from patent US20220369638A1, “USE OF THE SUCCINATE DEHYDROGENASE INHIBITOR PYDIFLUMETOFEN FOR CONTROLLING CLAVICEPS PURPUREA AND REDUCING SCLEROTIA IN CEREALS” (Bayer Aktiengesellschaft, priority 2019, published 2022).
